Assay results as given in patent publication US20100197688A1, “EPHA4 RTK INHIBITORS FOR TREATMENT OF NEUROLOGICAL AND NEURODEGENERATIVE DISORDERS AND CANCER” (priority 2008, published 2010).
pIC50: −log10 of the molar value.

Experiments:
[1] = molecular target: T1, human form of EphA4 receptor (Homo sapiens, UniProt P54764); assay: EphA4 cell-based assay (pGAS-luciferase in EphA4-transfected CHO-K1 cells); conditions: for pIC50: inflexion point, read-out: EphA4 Cell Assay IP; for EphA4 Cell Assay maximum percent inhibition: value in parentheses
T1 construct: expressed in transfected cells; host or cells: CHO-K1, transiently transfected with EphA4 in pCMV6-XL5
T1 sequence (P54764 20-986): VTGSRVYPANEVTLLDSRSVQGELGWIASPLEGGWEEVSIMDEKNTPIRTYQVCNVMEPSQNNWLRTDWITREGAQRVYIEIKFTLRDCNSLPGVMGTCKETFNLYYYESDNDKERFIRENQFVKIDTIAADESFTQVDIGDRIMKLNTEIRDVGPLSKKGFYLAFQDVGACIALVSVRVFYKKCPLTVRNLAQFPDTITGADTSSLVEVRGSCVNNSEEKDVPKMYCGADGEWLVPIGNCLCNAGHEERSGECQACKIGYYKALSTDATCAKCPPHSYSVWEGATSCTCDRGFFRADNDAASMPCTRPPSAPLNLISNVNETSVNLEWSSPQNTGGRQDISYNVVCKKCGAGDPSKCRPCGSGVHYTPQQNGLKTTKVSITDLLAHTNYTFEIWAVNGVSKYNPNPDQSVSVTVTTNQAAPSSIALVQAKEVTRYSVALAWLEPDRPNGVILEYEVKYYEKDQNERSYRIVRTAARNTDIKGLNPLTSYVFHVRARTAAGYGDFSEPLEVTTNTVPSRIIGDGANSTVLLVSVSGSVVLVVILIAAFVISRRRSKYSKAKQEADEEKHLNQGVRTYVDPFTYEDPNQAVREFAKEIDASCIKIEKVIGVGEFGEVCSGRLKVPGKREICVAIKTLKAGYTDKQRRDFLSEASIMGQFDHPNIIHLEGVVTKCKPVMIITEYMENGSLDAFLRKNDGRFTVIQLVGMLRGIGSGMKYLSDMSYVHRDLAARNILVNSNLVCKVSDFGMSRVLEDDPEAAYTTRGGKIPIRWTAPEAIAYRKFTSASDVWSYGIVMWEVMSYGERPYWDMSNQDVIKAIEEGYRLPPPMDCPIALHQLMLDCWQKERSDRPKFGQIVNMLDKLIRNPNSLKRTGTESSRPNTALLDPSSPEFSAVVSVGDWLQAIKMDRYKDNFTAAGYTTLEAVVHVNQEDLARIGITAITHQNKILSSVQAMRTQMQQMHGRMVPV
Description: A cell-based assay was used to measure the potency of the compounds on the human form of EphA4 receptor over-expressed in Chinese Hamster Ovary cell line, CHO-K1 cells (Merck Collection). The cell assay was based on a novel signaling pathway of EphA4, which involves activation of the tyrosine kinase Jak2 and the transcriptional activator Stat3 (39).
Reagents: The expression constructs of EphA4 were subcloned into the expression vector pCMV6-XL5 (Origene, Md., USA) (clone from Merck Kinase Library). The luciferase construct that was linked to the Stat1-responsive enhancer (pGAS-Luc) was bought from Stratagene (USA). The renilla construct that linked to an empty vector CMV was bought from Promega (USA).
Transfection and Luciferase Assay: CHO-K1 cells were plated in T-175 cell culture bottle in DMEM medium supplemented with 10% fetal bovine serum, 1 mM sodium pyruvate, 2 mM L-glutamine and 1.5 g/L sodium bicarbonate. When cell reached 70-80% confluence, transfections were performed in T-175 culture flasks, using Lipofectamine 2000™ transfection reagent (Invitrogen) according to the manufacturer's directions. For the luciferase assay CHO-K1 cells were co-transfected the next day with […] of pGAS-Luc, 70 mg of EphA4, and 5 mg of empty vector pRL-CMV, which encoded the Renilla luciferase, and was included in the transfection mix for normalization. Six hours after transfection the cells were trypsinized and plated at 4.105 cells/ml into 96 well Black/Clear Poly-D-Lysine coated plates (Biocoat) that had been pre-spotted with compounds. Cells were lysed the next day using the Reporter Lysis Buffer (Promega), and the luciferase activity was measured using the Dual Luciferase Assay (Promega) following the manufacturer's directions. The Firefly and Renilla luminescences are read consecutively on a Top-Count (Perkin-Elmer). Results are expressed as a ratio of the two luminsescence: Firefly Luciferase/Renilla Luciferase. Cell viability was assessed on parallel plates using the Cell Glo Assay (Promega) following the manufacturer's directions. Results are expressed as percent of cell death in comparison with vehicle-treated wells.
Compounds were titrated in duplicate at 10 points concentration starting at 100 μM with a 1.5 fold increment. Concentration-response curves were represented and the concentrations at the inflexion point (IP) were calculated. The maximum effect was given by the maximum percent inhibition calculated from the results of the control wells (containing only DMSO).

[2] = tested on: Primary Rat cortical astrocytes; assay: Toxicity (percent of cell death), astrocytes; format: cell-based; conditions: 20 μM
Method: EphA4 kinase inhibition is assessed by both an enzymatic assay measuring the phosphorylation of a purified recombinant EphA4 kinase and a cell-based assay using the activation of pGas-Luciferase system in EphA4-transfected CHO-K1 cells. The functional effects of EphA4 RTK inhibitors on cell motility and proliferation is evaluated by the scratch wound assay. The effect of EphA4 RTK inhibitors is also directly measured on the cell confluence. The counterscreen assays (cell counterscreen, Src, Jak2 and P38α kinase) identified other potential inhibitory activities of compounds unrelated to EphA4 kinase. The toxicity is measured by the percent of cell death in the different cell assays. Values represent IC50 and IP in μM calculated from the dose-response curves. Values in parentheses give the maximum percent inhibition.

P38alpha kinase = molecular target: T2, P38alpha kinase (Homo sapiens, UniProt Q16539); assay: P38 alpha kinase counterscreen assay (Caliper); format: biochemical
T2 construct: purchased Dundee Library
T2 sequence (Q16539 whole entry): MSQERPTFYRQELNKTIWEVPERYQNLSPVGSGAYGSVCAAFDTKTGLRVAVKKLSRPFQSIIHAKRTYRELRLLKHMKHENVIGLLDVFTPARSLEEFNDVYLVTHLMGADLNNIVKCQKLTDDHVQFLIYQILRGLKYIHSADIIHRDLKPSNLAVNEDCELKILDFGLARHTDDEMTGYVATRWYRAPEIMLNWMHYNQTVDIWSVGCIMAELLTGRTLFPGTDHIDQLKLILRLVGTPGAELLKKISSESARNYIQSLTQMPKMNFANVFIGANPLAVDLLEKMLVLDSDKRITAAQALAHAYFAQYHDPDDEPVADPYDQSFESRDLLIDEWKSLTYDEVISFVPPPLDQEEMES
Method: A counterscreen assay was performed to measure p38alpha kinase activity using the Caliper System (LifeSciences, USA). This system is based on the microfluidic technology. P38 alpha kinase activity was measured by the shift in mobility of the non-phosphorylated form when separated by electrophoresis and detected via LED (Light Emitting Diode) induced fluorescence. This assay was automated following the manufacturer's protocol. P38alpha kinase and its substrate GST-MK2 were bought from Dundee Library.
Compounds were titrated, concentration-response curves were represented and the concentrations for 50% inhibition (IC50) were calculated.

[3] = tested on: Primary Rat cortical astrocytes; assay: Proliferation assay (cell confluence), astrocytes; format: cell-based; conditions: at 5 μM
Method: C2C12 were plated at 15,000 cells per well and then differentiated into myotubes with DMEM supplemented with 2% horse serum for 3 days in 24 well ImageLock™ plate (Essen Instruments, Mich., USA). Primary Rat cortical astrocytes were plated at 3.105 cells/ml onto 24 well ImageLock™ plate.
Cells were placed into the IncuCyte™ at 37° C. and 95% CO2/5% O2, for two to three days. During this time, the cells within each well were repeatedly imaged at fixed time intervals (every three hours). The IncuCyte™ system automatically monitored the proliferation using the percentage of confluence. Percent of confluence can be graphed over time to evaluate the characteristics of proliferation in the presence of pharmacological agents.
[…] The percentage of reduction of cell confluence was calculated from the AUCs in comparison with the AUCs of the control wells (1% DMSO).

| Compound | pIC50 [1] | EphA4 Cell Assay maximum percent inhibition [1] [%] | Max Toxicity Astrocytes % of cell death [2] [% 20 μM] | pIC50 (P38alpha kinase) | % Reduction of Confluence Astrocytes [3] [% at 5 μM] |
| --- | --- | --- | --- | --- | --- |
| Cc1ccc(NC(=O)c2cccc(C(F)(F)F)c2)cc1-c1ccc(O)c(NC=O)c1 [Example 133] | 5.08 | 42 | 0 | 5.16 | 28.2 |
| Cc1ccc(NC(=O)c2cccc(C(F)(F)F)c2)cc1-c1ccc(-n2cccn2)cc1 [Example 120] | 5.25 | 50 | – | – | – |
